The subject of assay [1] is p21ras plasma membrane association in EJ3 cells. As to the kind of experiment: p21ras membrane association in EJ3 cells (immunoprecipitation, Western blot). The note with it: FIG. 6. Type of assay: cell-based, murine. From the text:
This is indicated by FIG. 6. EJ3 cells were exposed to saline, lovastatin, C-AMBA-M or BBM-C-AMBA-M and p21ras immunoprecipitated with the anti-ras antibody Y13-259 (Oncogene Science Inc.). Membrane-bound and cytosolic p21ras were separated by SDS-PAGE and Western blotted with an anti-p21ras antibody (Y13-259). Control cells (saline-treated) contained only membrane-bound p21ras.

Assay [2] deals with T1, p21ras farnesyltransferase from Burkitt's lymphoma (Daudi) (Homo sapiens, UniProt P49354+P49356).
T1 construct: Partially purified p21ras farnesyltransferase from human tumors; endogenous in cells; host or cells: Daudi Burkitt's lymphoma cells
T1 sequence (P49356 whole entry, one chain of several): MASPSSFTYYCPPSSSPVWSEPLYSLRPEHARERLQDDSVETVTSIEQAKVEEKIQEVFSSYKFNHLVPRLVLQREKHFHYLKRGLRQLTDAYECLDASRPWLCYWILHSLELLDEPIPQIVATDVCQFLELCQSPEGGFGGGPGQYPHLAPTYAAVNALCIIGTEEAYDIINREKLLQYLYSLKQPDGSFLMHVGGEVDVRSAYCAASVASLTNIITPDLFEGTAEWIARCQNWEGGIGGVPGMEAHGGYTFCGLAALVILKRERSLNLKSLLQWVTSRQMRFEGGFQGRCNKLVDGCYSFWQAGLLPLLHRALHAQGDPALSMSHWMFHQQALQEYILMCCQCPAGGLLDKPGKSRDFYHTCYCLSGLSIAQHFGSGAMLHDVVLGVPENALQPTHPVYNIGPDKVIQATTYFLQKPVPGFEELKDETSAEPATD
Put plainly: p21ras farnesyltransferase activity assay, enzyme from Daudi. It is filed as biochemical. As for the experimental part:
(§1) Human colon carcinoma COLO-205 cells (ATCC, Rockville, Md.) were grown to confluency in RPMI containing 10% FBS, 1% penicillin/streptomycin at 37° C and 10% Co2 atmosphere. The cells were homogenized in lysis buffer (10 mM Hepes pH 7.4, 1 mM MgCl2, 1 mM EDTA, 0.1 mM DDT, and 0.1 mM PMSF) and centrifuged at 12,000×g followed by a 60,000×g centrifugation of the supernatant. p21ras farnesyltransferase from 60,000×g supernatant fractions was then partially purified by DEAE-sephacel chromatography where it was eluted with 50 mM Tris (pH 7.5) containing 0.4M NaCl. p21ras farnesyltransferase activity was determined by measuring the amount of [3H]FPP transferred to recombinant p21H-ras as previously described (15,16). p21H-ras was isolated from E. coli strain RRI expressing p21H-ras (Hoffman-LaRoche, Inc.) as described previously (25) except for the last step of purification where HPLC was replaced by DEAE-sephacel chromatography. For peptide inhibition studios, CA1 A2 X peptides and peptidomimetics were premixed with p21ras farnesyltransferase (40 μg) prior to adding the reaction mixture (50 Mm Tris (pH. 7.5), 50 μM ZnCl2, 20 mM KCl, 1 mM DTT, 20 μM p21H-ras, 9 mmol [3H]FPP). After incubation for one hour at 37° C., the reaction was stopped and filtered on glass fibers as described earlier (15,16).
(§2) To determine the potency of the novel peptidomimetics relative to their parent tetrapeptides, the potency of CA1 A2 X corresponding to the carboxyl terminus ends of p21 KA -ras, p21 KB -ras and p21N-ras to inhibit p21ras farnesyltransferase from human colon carcinoma (COLO-205) and Burkitt's lymphoma (Daudi) was determined.

The target of assay [3] is T2, p21ras farnesyltransferase from EJ3 cells (Mus musculus, UniProt Q61239+Q8K2I1).
T2 construct: p21ras farnesyltransferase was partially purified from EJ3 cells by DEAE-chromatography; endogenous in cells; host or cells: EJ3 cells (H-ras-transformed Balb/c 3T3 murine fibroblasts)
T2 sequence (Q8K2I1 whole entry, one chain of several): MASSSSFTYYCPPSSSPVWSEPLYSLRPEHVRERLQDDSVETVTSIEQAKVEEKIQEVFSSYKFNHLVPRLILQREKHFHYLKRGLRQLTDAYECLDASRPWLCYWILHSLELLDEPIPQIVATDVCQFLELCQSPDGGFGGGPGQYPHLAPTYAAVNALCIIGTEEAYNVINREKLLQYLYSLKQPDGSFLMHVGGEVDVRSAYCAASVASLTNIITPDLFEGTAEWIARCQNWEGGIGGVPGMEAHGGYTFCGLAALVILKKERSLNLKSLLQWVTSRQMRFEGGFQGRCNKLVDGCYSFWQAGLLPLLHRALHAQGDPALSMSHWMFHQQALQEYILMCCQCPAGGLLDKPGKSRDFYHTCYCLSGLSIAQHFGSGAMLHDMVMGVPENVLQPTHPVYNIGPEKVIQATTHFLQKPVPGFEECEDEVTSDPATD
As to the kind of experiment: p21ras farnesyltransferase inhibition, enzyme from EJ3 cells. Type of assay: biochemical, murine. As for the experimental part: as §1, with “earlier (15,16). […] The results for C-AMBA-M (.quadrature.), CVIM (.circle-solid.), CIIM (Δ), CVVM (.gradient.) and VCIM (.smallcircle.) are indicated in FIG. 1. The data presented is representative of three independent experiments.” for “earlier (15,16).”
The ability of CA1 A2 X tetrapeptides, peptidomimetics and corresponding functionalized derivatives to inhibit p21ras farnesyltransferase from EJ3 cells was determined in vitro as described above (Example 9). p21ras farnesyltransferase was partially purified from EJ3 cells by DEAE-chromatography as described above (Example 9) and incubated with various concentrations of peptides and peptidomimetics. The ability of these drugs to inhibit the transfer of [3H]FPP to recombinant p21ras was determined as described (Example 9).

Assay [4] addresses T3, p21ras farnesyltransferase from human colon carcinoma (COLO-205) (Homo sapiens, UniProt P49354+P49356).
T3 construct: p21ras farnesyltransferase from 60,000×g supernatant fractions was then partially purified by DEAE-sephacel chromatography; endogenous in cells; host or cells: COLO-205 human colon carcinoma cells (cytosolic 60,000×g supernatant, DEAE-sephacel fraction)
Put plainly: p21ras farnesyltransferase activity assay, enzyme from COLO-205. It is filed as biochemical. The following applies: for inhibition of p21ras farnesyltransferase (in words): human tumor enzyme (COLO-205 and Daudi), concentrations as high as 10 μM. As for the experimental part:
as §1, §2

In assay [5] the test system is Ras oncogene-transformed EJ3 cells. It is filed as cell-based, murine. As for the experimental part:
(§3) The ability of the peptides and their bis-carbobenzyloxy methyl ester derivatives (using BBM-CA1 A2 X; BBM-C-AMBA-M as examples) to inhibit tumor cell growth was determined by the well-known MTT assay. Ras oncogene-transformed EJ3 cells (a balbc 3T3 murine fibroblast (A-31) transformed with H-ras oncogene from a human bladder carcinoma) were exposed to various concentrations of peptides, peptidomimetics and their functionalized derivatives. Four days later, the percentage of live cells present relative to control was determined for each drug concentration. The extent of cell proliferation in the absence of drug was used as 100% proliferation.

For a further assay, the system named is A-31 cells. As to the kind of experiment: Cell growth inhibition, MTT assay, A-31 cells. Type of assay: cell-based, murine. The note with it: concentrations of 500 μM, FIG. 7B. As for the experimental part: as §3
An important aspect of the invention is the finding that the antitumor activity of the peptidomimetics of the invention are selective for ras-transformed cells as compared to their non-transformed parent cell line. A-31 is a normal, non-tumorigenic cell line clone from balb murine fibroblasts. EJ3 is a tumorigenic (produces tumors when injected into mice) cell line that was obtained by transforming A-31 cells with H-ras isolated from a human bladder tumor. The ability of BBM-peptides and peptidomimetics to inhibit cell growth of these two related cell lines (A-31 and EJ3) was determined by MTT assay as described above.

Setting [6] is: partially purified enzyme from Daudi, transfer of farnesyl to recombinant p21 H-ras, read-out: IC50 (μM) Daudi.
Where [7] appears, read: Table 2, read-out: IC50 (uM) Farnesyltransferase.
The mark [8] stands for this setting: enzyme from EJ3 cells, FIG. 5A/5B, read-out: p21ras farnesyltransferase IC50.
Setting [9] is: partially purified enzyme from COLO-205, transfer of farnesyl to recombinant p21 H-ras, read-out: IC50 (μM) COLO-205.
Setting [10] is: MTT, four days, FIG. 4A/4B, read-out: EJ3 cell growth inhibition IC50.
[11] abbreviates: Table 2, ras oncogene-transformed cells, read-out: IC50 (uM) Growth Studies.
[12] abbreviates: read-out: IC50, p21ras farnesyltransferase from Daudi.

Like-named read-outs stand apart in the source and are kept apart here. Peptide text beside a SMILES is read from it. * marks the point of attachment. Cbz = O=C(OCc1ccccc1)*

Results on 16 compounds are retold here after patent US5856310A, “Inhibition of farnesyltransferase” (University of Pittsburgh, priority 1995, dated 1999).

Take `CC[C@H](C)C(=O)O[C@H]1C[C@@H](C)C=C2C=C[C@H](C)[C@H](CC[C@@H]3C[C@@H](O)CC(=O)O3)[C@H]21` [Lovastatin, reference compound]: in assay [1], the “inhibition of p21ras plasma membrane association (in words)” value is reported as “inhibited p21ras membrane association”.
Regarding `CC[C@H](C)[C@H](NC(=O)[C@H](CS)NC(=O)[C@@H](N)C(C)C)C(=O)N[C@@H](CCSC)C(=O)O` [VCIM, reference compound] (H-VCIM-OH), the IC50 is above 10 µM in assay [2] (setting [6]), 40 µM in assay [3] (setting [7]), above 10 µM in assay [3] (setting [8]) and above 10 µM in assay [4] (setting [9]).
Turning to `COC(=O)[C@H](CCSC)NC(=O)c1cccc(CNC(=O)[C@H](CSC(=O)OCc2ccccc2)NC(=O)OCc2ccccc2)c1` [BBM-C-AMBA-M, N, S-DiCBZ-Cys-AMBA-Met-OCH3], the IC50 in assay [3] (setting [7]) was above 100 µM; in assay [3] (setting [8]) it was above 100 µM; in assay [5] (setting [10]), 10 µM; in assay [5] (MTT, selectivity study, FIG. 7A/7B, read-out: EJ3 cell growth inhibition IC50), 20 µM; in assay [5] (setting [11]) it was 12.1 ± 1 µM. Besides, the “inhibition of p21ras plasma membrane association (in words)” value in assay [1] is “inhibited p21ras plasma membrane association”. The “effect on A-31 cell growth (in words)” value in the assay with A-31 cells is listed as “not much affected”.
For `CC[C@H](C)[C@H](NC(=O)[C@@H](NC(=O)[C@H](CSC(=O)OCc1ccccc1)NC(=O)OCc1ccccc1)C(C)C)C(=O)N[C@@H](CCSC)C(=O)OC` [BBM-CVIM] (Cbz-C(Cbz)VIM-OMe), the results for the IC50 in assay [3] (setting [7]) and in assay [3] (setting [8]) were above 100 µM and above 10 µM, respectively.
In the case of Cys-AMBA-Glu [C-AMBA-E], the “reduction of ability to inhibit the enzyme relative to Cys-AMBA-Met” value in assay [2] (Daudi) worked out at 13 fold; in assay [4] (COLO-205), 24 fold. Further, the values for the half-maximal inhibitory concentration (IC50) in assay [2] (setting [6]) and in assay [4] (setting [9]) were 1.54 µM and 1.42 µM, respectively.
Consider `N[C@@H](CS)C(=O)NCc1cccc(C(=O)N[C@@H](Cc2ccccc2)C(=O)O)c1` [C-AMBA-F, Cys-AMBA-Phe], for which the results for the concentration for half-maximal inhibition (IC50) in assay [2] (setting [6]), in assay [2] (setting [12]) and in assay [4] (setting [9]) were 0.6 µM, 0.6 µM and 0.53 µM, respectively.
Take `O=C(N[C@@H](CSC(=O)OCc1ccccc1)C(=O)O)OCc1ccccc1` [BB-Cys, N S-DiCBZ-cysteine]: in assay [5] (setting [11]), the IC50 worked out at 275 ± 41 µM.
`CC(C)C[C@H](NC(=O)c1cccc(CNC(=O)[C@@H](N)CS)c1)C(=O)O` [C-AMBA-L, Cys-AMBA-Leu]: the IC50 in assay [2] (setting [6]) and in assay [4] (setting [9]) was above 10 µM in each case. Moreover, the “inhibition of p21ras farnesyltransferase (in words)” value in assay [4] was “had no inhibitory activity”.
With Ser-AMBA-Met [S-AMBA-M], the IC50 in assay [2] (setting [6]) and in assay [4] (setting [9]) was above 10 µM throughout. For the same compound, in assay [4], the “inhibition of p21ras farnesyltransferase (in words)” value is “did not inhibit”.
As to `CSCC[C@H](NC(=O)[C@@H](NC(=O)[C@@H](NC(=O)[C@@H](N)CS)C(C)C)C(C)C)C(=O)O` [CVVM, Cys-Val-Val-Met, reference compound] (H-CVVM-OH), the IC50 in assay [2] (setting [6]) was found to be 0.61 µM; in assay [4] (setting [9]), 0.46 µM.
`CC[C@H](C)[C@H](NC(=O)[C@@H](NC(=O)[C@H](CSC(=O)OCc1ccccc1)NC(=O)OCc1ccccc1)C(C)C)C(=O)N[C@@H](CCSC)C(=O)OC` [BBM-VCIM] (Cbz-C(Cbz)VIM-OMe): the IC50 in assay [5] (setting [11]) was determined as 215 ± 66 µM.
Turning to `CSCC[C@H](NC(=O)c1cccc(CNC(=O)[C@@H](N)CS)c1)C(=O)O` [C-AMBA-M, Cys-AMBA-Met], the figures for the “increase in potency over CIIM” value in assay [2] (Daudi) and in assay [4] (COLO-205) were 6.9 fold and 8.8 fold, respectively. For the same compound, the entries for the “increase in potency over CVIM” value in assay [2] (Daudi) and in assay [4] (COLO-205) were 1.6 fold and 3.3 fold, respectively. Also, the “increase in potency over CVVM” value in assay [2] (Daudi) is 5.1 fold; in assay [4] (COLO-205) it was 7.7 fold. Moreover, the IC50 in assay [2] (setting [12]) is 0.12 µM; in assay [3] (setting [7]) it was 3.1 µM; in assay [3] (setting [8]), 2 µM; in assay [5] (setting [10]), 1500 µM; in assay [5] (setting [11]), 627 ± 178 µM; in assay [4] (setting [9]), 0.06 µM. Further, the IC50 in assay [4] (read-out: IC50, p21ras farnesyltransferase from COLO-205) was determined as 0.06 µM. Besides, the “inhibition of p21ras plasma membrane association (in words)” value in assay [1] is recorded as “did not inhibit p21ras plasma association”.
Take `NCCCC[C@H](NC(=O)c1cccc(CNC(=O)[C@@H](N)CS)c1)C(=O)O` [C-AMBA-K, Cys-AMBA-Lys]: the IC50 in assay [2] (setting [6]) and in assay [4] (setting [9]) was above 10 µM each time. Moreover, in assay [4], the “inhibition of p21ras farnesyltransferase (in words)” value is on record as “abolished p21ras farnesyltransferase inhibition activity”.
Take `CC[C@H](C)[C@H](NC(=O)[C@@H](NC(=O)[C@@H](N)CS)C(C)C)C(=O)N[C@@H](CCSC)C(=O)OC` [M-CVIM] (HELM PEPTIDE1{C.V.I.M.[CO[*:1]]}$$$$V2.0): the IC50 was determined as 4.5 µM in assay [3] (setting [7]) and 200 ± 58 µM in assay [5] (setting [11]).
With `CC[C@H](C)[C@H](NC(=O)[C@@H](NC(=O)[C@@H](N)CS)[C@@H](C)CC)C(=O)N[C@@H](CCSC)C(=O)O` [CIIM, reference compound] (H-CIIM-OH), the IC50 in assay [2] (setting [6]) was found to be 0.83 µM; in assay [4] (setting [9]), 0.53 µM.
As to `CC[C@H](C)[C@H](NC(=O)[C@@H](NC(=O)[C@@H](N)CS)C(C)C)C(=O)N[C@@H](CCSC)C(=O)O` [CVIM, Cys-Val-Ile-Met, reference compound] (H-CVIM-OH), the IC50 in assay [2] (setting [12]) is 0.19 µM; in assay [3] (setting [7]) it was 0.35 µM; in assay [3] (enzyme from EJ3 cells, FIG. 5A, read-out: p21ras farnesyltransferase IC50), 0.4 µM.
